“And” between values parts separate entries of the source, which are not always exact repeats. Equal values may be shown once. “Also recorded” adds a separate entry of the source. Read-outs that look alike come from different tables or passages of the source. Marks after values point to notes of the source that are not given here.
Legend:
[1] = tested on: 27 nucleotide fragment of bacterial 16S ribosomal RNA incorporating the A-site; assay: ESI-FT-ICR MS detection of non-covalent ligand:16S RNA complexes (ion abundance relative to unbound RNA); format: binding; settings: for ion abundance of binary ligand:16S complex relative to unbound 16S RNA: 200 μM ligand, 5 μM target 16S RNA fragment; for affinity for 16S (order of magnitude): ESI-MS assay
Protocol: In separate mixtures, 200 μM of three ligands IBIS-326611 ((2S)-2-amino-3-hydroxy-1-piperazinylpropan-1-one), IBIS-326645 (5-methyl-1-(2-oxo-2-piperazinylethyl)-1,3-dihydropyrimidine-2,4-dione) and a concatenated compound thereof, IBIS-271583 (1-{2-[(3R)-4-(2S)-2-amino-3-hydroxypropanoyl)-3-methylpiperazinyl]-2-oxoethyl}-5-methyl-1,3-dihydropyrimidine-2,4-dione) are each mixed with 5 μM of target 16S RNA fragment and analyzed by mass spectrometry. IBIS-326611 is shown in FIG. 5 to form a binary complex having an ion abundance 27.8% that of the unbound 16S RNA while IBIS-326645 in FIG. 6 forms a binary complex having an ion abundance 14.7% that of the unbound 16S RNA.
All MS experiments were performed by using an Apex II 70e ESI-FT-ICR MS (Bruker Daltonics, Billerica, Mass.) with an actively shielded 7 tesla superconducting magnet. RNA solutions were prepared in 50 mM NH4OAc (pH 7), mixed with 10% isopropanol to aid desolvation, and infused at a rate of 1.5 μL/min by using a syringe pump. Ions were formed in a modified electrospray source (Analytica, Branford, Conn.) by using an off-axis grounded electrospray probe positioned ca. 1.5 cm from the metallized terminus of the glass desolvation capillary biased at 5,000 V. A countercurrent flow of dry […] gas heated to 150° C. was used to assist in the desolvation process. Ions were accumulated in an external ion reservoir comprised of a radio frequency-only hexapole, a skimmer cone, and an auxiliary electrode for 1,000 ms before transfer into the trapped ion cell for mass analysis. Each spectrum was the result of the co-addition of 64 transients comprised of 524,288 data points acquired over a […] bandwidth, resulting in a 1.2-sec detection interval. All aspects of pulse sequence control, data acquisition, and postacquisition processing were performed by using a Bruker Daltonics data station running XMASS Version 4.0 on a Silicon Graphics (Mountain View, Calif.) R5000 computer.
RNA binding ligands are selected from a set of compounds using mass spectrometry. The RNA used for the target molecule is an RNA whose electrospray ionization properties have been optimized in conjunction with optimization of the electrospray ionization and desolvation conditions. […] A 50 μM stock solution of the RNA is purified, and dialyzed to remove sodium and potassium ions.
The compound set is pooled into mixtures of 8 members, each present at 1-10 mM in […]. A collection of these mixtures is diluted 1:50 into an aqueous solution containing 50-150 mM ammonium acetate buffer at pH 7.0, 1-5 μM RNA target, and 10-50% isopropanol, ethanol, or methanol to create the screening sample. The aqueous solution contains 100 μM each of 8 compounds, 50 mM ammonium acetate, 5 μM RNA target, and 25% isopropanol. These screening samples are arrayed in a 96-well microtiter plate, or added to individual vials for queuing into an automated robotic liquid hander under computer control by the mass spectrometer.
The source voltage potentials are adjusted to give stable electrospray ionization by monitoring the ion abundance of the free RNA. […] If available on the mass spectrometers, the partial gas pressure beyond the desolvation capillary is adjusted by throttling the pumping speed. This gas pressure may also be altered to optimize the ion abundance and observation of the ammonium ion adducts. After instrument performance has been optimized, the voltage potential between the capillary and skimmer lens is increased to reduce the abundance of the ion from the monoammonium-RNA complex to […] of the abundance of the ion from the RNA. These instrument parameters are used for detection of complexes between the RNA and compound set.
The compound set is screened for members that form non-covalent complexes with the RNA. […]

[2] = molecular target: 16S ribosomal RNA fragment (27mer RNA, SEQ ID NO:1); assay: ESI-MS titration of 2-DOS against 16S, polynomial fit for dissociation constants; format: binding, bacterial; settings: 4th order polynomial fit, 100 mM ammonium acetate buffer
Protocol: 2′-O-ACE protected 27mer RNA ([…]; SEQ ID NO:1) was purchased from Dharmacon Research (Boulder, Colo.). Aqueous solutions were deprotected for 30 min at 60° C. in a 0.1M tetramethylenediamine acetate buffer at pH 3.5. […] All chemicals were purchased from Aldrich Chemicals (Milwaukee), except for 2-deoxystreptamine and 3,5-diamino-1-N-methyl-triazole, which were prepared according to Georgiadis et al (J. Carbohydr. Chem. 1991, 10, 739-748) and Kaiser et al (U.S. Pat. No. 2,648,670). Ligands were added to the indicated final concentrations from 20 mM aqueous solutions.
Identical sample preparations were used for experiments with FTICR mass spectrometer. […] Sample was introduced at 1.0 μL/min and the capillary interface unheated. Ions were stored for 1.25 sec in a hexapole ion guide prior to transfer to the trapped ion cell. The indicated gas pressure over the vacuum pump situated below the hexapole ion guide was ˜8×10^−6 mbar. The parallel measurements of relative activation energy were performed with the FTICR mass spectrometer by varying the potential difference between the capillary exit and the first skimmer lens element. Typically, 32 1.2 sec transients of 512 k data points were summed prior to Fourier transformation and display.
2-deoxystreptamine (2-DOS) bound to 16S at multiple locations as a function of increasing concentration. At 0.33 mM, one 2-DOS bound 16S, generating an [M-5H^+]^5− complex observed at m/z 1758.9. Complexes corresponding to three and four 2-DOS molecules bound concurrently to 16S appeared at concentrations above 3.3 mM. Knowledge of the binding stoichiometry lead to the use of a fourth-order polynomial for calculation of the respective dissociation constants (KD) (Greig et al., J. Am. Chem. Soc. 1995, 117, 10765-10766).

[3] = tested on: 27-mer fragment of ribosomal RNA comprising the 16S A-site; assay: Mode of binding of ligand pairs by ESI-MS (presence or absence of ternary complex); design: species or system bacterial; settings: for binding interaction of ligand pair 2-DOS / 3,5-DT on 16S RNA: 5 μM 16S, 100 μM 2-DOS, 0.5 mM 3,5-DT; for binding interaction of ligand pair 2-DOS / 2,4-diaminopyrimidine on 16S RNA: no ternary complex signal; for binding interaction of ligand pair Ibis-326732 / glucosamine on 16S RNA: 70 μM Ibis-326732, 100 μM glucosamine, 5 μM 16S RNA
Text: Ligands bind competitively for a target when the binding of one ligand prevents the binding of the other ligand is the result of the ligands binding to the target at the same location. In this situation, the mixture contains an equilibrium of two binary complexes, one of which being one ligand bound to the target and the other being the other ligand bound to the target. The ligand having the greater affinity for the target will predominate and thus have higher signal intensity for its binary complex with the target compared to the other ligand. Competitive binding interaction between two ligands is determined according to methods of the invention by analyzing the mixture by mass-spectrometry to detect the presence or lack of signal corresponding to a ternary complex where both ligands are bound to the target at the same time. The lack of signal for a ternary complex indicates a competitive binding interaction between the two ligands while the presence of the signal indicates a non-competitive interaction.
Accordingly, in an aspect of the present invention, there is provided a method for determining the relative interaction between at least two ligands with respect to a target substrate. In practicing this method an amount of each of the ligands is mixed with an amount of the target substrate to form a mixture. This mixture is analyzed by mass spectrometry to determine the presence or absence of a ternary complex corresponding to the simultaneous adduction of two of the ligands with the target substrate.
Ligands bind concurrently when the binding of one ligand to the target is unaffected by the binding of the other and is a consequence of the ligands binding to the target at distinct sites. […] The ligand having the greater affinity for the target will have higher signal intensity for its binary complex with the target compared to the other ligand. […] Particularly, the absolute ion abundance of the ternary complex (TL1L2) is compared to the relative ion abundance of the binary complexes (TL1 and TL2) which contribute to the formation of the ternary complex with respect to the unbound target (TL1×TL2/T). Since there are two binary complexes contributing the formation of the ternary complex, the comparison is with the sum of the two contributing binary complexes i.e. TL1×TL2/T+TL2×TL1/T. If the absolute ion abundance of the ternary complex is equal to the sum of the relative ion abundance of the contributing binary complexes, then the two ligands concurrently bind to the target substrate. Expressed another way, a pair of ligands are concurrent binders for a target if in either of the following equivalent formulae the value of y is equal to zero: […]
In the compound collection used in Example 1, those compounds that formed complexes with the RNA target are pooled into groups of 4-10 and screened again as a mixture against the RNA target as outlined in Example 1. Since all of the compounds have been shown previously to bind to the RNA, three possible changes in the relative ion abundance are observed in the mass spectrometry assay. If two compounds bind at the same site, the ion abundance of the RNA complex for the weaker binder will be decreased through competition for RNA binding with the higher affinity binder (competitive binding). An example is presented in FIG. 3, where the ion abundance from a glucosamine-RNA complex is reduced as glucosamine is displaced from the RNA by addition of a benzimidazole compound. If two compounds can bind at distinct sites, signals will be observed from the respective binary complexes with the RNA and from the ternary complex where both compounds bind to the RNA simultaneously (concurrent binders). […] The relative ion abundance from the […] for 3,5-DT to the free RNA is measured, as is the relative ion abundance from the ternary complex between 3,5-DT, 2-DOS, and RNA and the binary complex. […]

[4] = tested on: 16S ribosomal RNA fragment; assay: Relative solution affinities of ligand:16S complexes; format: binding, bacterial; settings: normalized to the solution affinity of 4-aminobenzamidine

## 1-{2-[(3R)-4-(2S)-2-amino-3-hydroxypropanoyl)-3-methylpiperazinyl]-2-oxoethyl}-5-methyl-1,3-dihydropyrimidine-2,4-dione [IBIS-271583]
[1]
  affinity for 16S RNA compared with another ligand (ion abundance of binary complexes): greater affinity for 16S than either parent compound
  ion abundance of binary ligand:16S complex relative to unbound 16S RNA: 14.7%
[1]; listed as IBIS-271483
  ion abundance of binary ligand:16S complex relative to unbound 16S RNA: 52.4%
  affinity for 16S RNA compared with another ligand (ion abundance of binary complexes): greater affinity for the target 16S RNA than either of the parent compounds

## N[C@@H]1C[C@H](N)[C@@H](O)C(O)[C@H]1O (stereo partly drawn) [2-DOS, 2-deoxystreptamine]
[1]
  affinity for 16S RNA compared with another ligand (ion abundance of binary complexes): greater binding affinity for the target RNA than DT
[2]; read-out: KD of 2-DOS:16S complex (first 2-DOS)
  Kd: 610 µM and 600 µM
[2]; read-out: KD of (2-DOS)2:16S complex (second 2-DOS)
  Kd: 1400 ± 100 µM
[2]; read-out: KD of (2-DOS)3:16S complex (third 2-DOS)
  Kd: 4000 ± 1000 µM
[3]
  binding interaction of ligand pair 2-DOS / 3,5-DT on 16S RNA: concurrent binding interaction; also recorded: cooperative binding
  binding interaction of ligand pair 2-DOS / 2,4-diaminopyrimidine on 16S RNA: preferred sites overlap and 2-DOS displaces DAP for binding

## NN1CN(SCc2ccccc2)C=N1 [2-amino-4-benzylthio-1,2,4-triazole]
[1]
  complex with RNA target observed by ESI-MS: seen

## Nc1n[nH]c(N)n1 [3,5-DT, 3,5-diamino-1,2,4-triazole]
[1]
  affinity for 16S (order of magnitude): ˜mM affinities
[3]
  binding interaction of ligand pair 2-DOS / 3,5-DT on 16S RNA: cooperative binding; also recorded: concurrent binding
[3]; listed as DT
  binding interaction of ligand pair 2-DOS / 3,5-DT on 16S RNA: concurrent binding interaction

## Cn1nc(N)nc1N [3,5-diamino-1-N-methyltriazole]
[1]
  complex with RNA target observed by ESI-MS: not observed

## N=C(N)c1ccc(N)cc1 [ABA, 4-aminobenzamidine]
[4]
  Relative Soln. Affinity: 1.00^b

## NC(=O)c1[nH]cnc1N [AICA, 4-aminoimidazole-5-carboxamide]
[4]
  Relative Soln. Affinity: .26 + 0.04

## Nc1ccnc(N)n1 [DAP, 2,4-diaminopyrimidine]
[1]
  affinity for 16S (order of magnitude): ˜mM affinities
[4]
  Relative Soln. Affinity: .17 + 0.04
[3]
  binding interaction of ligand pair 2-DOS / 2,4-diaminopyrimidine on 16S RNA: preferred sites overlap and 2-DOS displaces DAP for binding

## N[C@H]1C(O)O[C@H](CO)[C@@H](O)[C@@H]1O (stereo partly drawn) [GA, glucosamine]
[4]
  Relative Soln. Affinity: lower than GBI
[4]; listed as Glucosamine
  Relative Soln. Affinity: .86 + 0.03
[3]
  binding interaction of ligand pair Ibis-326732 / glucosamine on 16S RNA: competitive binders

## N=C(N)Nc1nc2ccccc2[nH]1 [GBI, 2-guanidylbenzimidazole]
[4]
  Relative Soln. Affinity: .99 + 0.02

## N[C@@H](CO)C(=O)N1CCNCC1 [IBIS-326611, (2S)-2-amino-3-hydroxy-1-piperazinylpropan-1-one]
[1]
  ion abundance of binary ligand:16S complex relative to unbound 16S RNA: 27.8%

## Nc1cccc2nc(C3CCNCC3)[nH]c12 [Ibis-326732, 4-amino-2-piperidin-4-ylbenzimidazole]
[1]
  affinity for 16S RNA compared with another ligand (ion abundance of binary complexes): greater affinity than glucosamine
[3]
  binding interaction of ligand pair Ibis-326732 / glucosamine on 16S RNA: competitive binders

Reference: patent US8188011B1, “Optimization of ligand affinity for RNA targets using mass spectrometry” (Isis Pharmaceuticals, Inc., priority 2000, dated 2012)
